{"source": "patent US6083976A", "about": "“Method of synthesis of derivatives of aloesin” (Univera Pharmaceuticals, Inc., priority 1999, dated 2000)", "key": {"[1]": {"biological_target": "tyrosinase", "test": "Tyrosinase activity assay using L-DOPA as a substrate", "format": "biochemical", "details": "for IC50: L-DOPA 0.4 mM, 48 U tyrosinase, absorbance at 475 nm, read-out: average concentration for 50% tyrosinase inhibition", "description": "Example 2 illustrates the general method for determination of tyrosinase inhibition by the alkylated aloesins, using octylaloesin for purposes of illustration.\nA tyrosinase activity assay was performed using L-DOPA as a substrate. Each 750 μL assay mixture contained KH2 PO4 /K2 HPO4 at a concentration of 50 mM, L-DOPA at a concentration of 0.4 mM, 48 U of tyrosinase activity (tyrosinase obtained from SIGMA at 4,400 U/mg), and varying concentrations of the inhibitor being tested. The progress of the reaction was monitored by measuring the absorbance of the reaction mixture at 475 nm."}, "[2]": {"tested_on": "tyrosinase", "details": "cited from earlier work"}, "[3]": {"details": "relative to hydroquinone; cited from earlier work"}}, "note": "Where two headings read alike, the source gives them in different places.", "data": [{"compound": "CCCCCCCCOc1cc(C)c2c(=O)cc(CC(C)=O)oc2c1[C@@H]1O[C@H](CO)[C@@H](O)[C@H](O)[C@H]1O", "note": "[Octylaloesin]", "values": [{"measurement": "IC50", "setting": "[1]", "value": 107, "unit": "µM"}, {"measurement": "fold more potent as a tyrosinase inhibitor than aloesin", "setting": "[1]; ratio of 50% inhibition concentrations", "value": "approximately 2.3 fold"}]}, {"compound": "CC(=O)Cc1cc(=O)c2c(C)cc(O)c([C@@H]3O[C@H](CO)[C@@H](O)[C@H](O)[C@H]3O)c2o1", "note": "[Aloesin]", "values": [{"measurement": "IC50", "setting": "[1]", "value": 250, "unit": "µM"}, {"measurement": "mode of tyrosinase inhibition (Lineweaver Burk diagram)", "setting": "[2]", "value": "non-competitive inhibitors of tyrosinase"}, {"measurement": "IC50", "setting": "[2]; substrate L-DOPA, read-out: concentration for 50% inhibition of tyrosinase activity", "value": 200, "unit": "µM"}]}, {"compound": "OC[C@H]1O[C@@H](Oc2ccc(O)cc2)[C@H](O)[C@@H](O)[C@@H]1O", "note": "[arbutin]", "values": [{"measurement": "quantity required to achieve a similar effect, compared to the quantity of hydroquinone used", "setting": "[3]", "value": "over 100 times"}]}, {"compound": "O=C1O[C@H]([C@@H](O)CO)C(O)=C1O", "note": "[ascorbic acid]", "values": [{"measurement": "quantity required to achieve a similar effect, compared to the quantity of hydroquinone used", "setting": "[3]", "value": 17, "unit": "times"}]}, {"compound": "COc1cc(/C=C/C(=O)O[C@@H]2[C@@H](O)[C@H](O)[C@@H](CO)O[C@H]2c2c(O)cc(C)c3c(=O)cc(CC(C)=O)oc23)ccc1O", "note": "[2\"-O-feruloylaloesin]", "values": [{"measurement": "mode of tyrosinase inhibition (Lineweaver Burk diagram)", "setting": "[2]", "value": "non-competitive inhibitors of tyrosinase"}]}]}
